Experimental data published in ChEMBL document CHEMBL1156502, “Stabilized immune modulatory RNA compounds as agonists of Toll-like receptors 7 and 8” (Proc Natl Acad Sci U S A, 2007).
The source made the active and inactive calls. The calls are words filed in the database; no cut-off is given here.

Columns and labels:
PBMC [1] = assay: Induction of IL10 secretion in human PBMC after 24 hrs by Luminex Multiplex assay; format: functional, cell-based
PBMC [2] = assay: Induction of IL2R secretion in human PBMC after 24 hrs by Luminex Multiplex assay; format: functional, cell-based
PBMC [3] = assay: Induction of IFNalpha secretion in human PBMC after 24 hrs by Luminex Multiplex assay; format: functional, cell-based
[4] = target: T1, Toll-like receptor 7 (Homo sapiens) (UniProt Q9NYK1); assay: Activation of human TLR7 expressed in HEK293 cells assessed as increase in NF-kappaB activation at 100 ug/ml by SEAP assay; format: cell-based
T1 sequence (whole entry): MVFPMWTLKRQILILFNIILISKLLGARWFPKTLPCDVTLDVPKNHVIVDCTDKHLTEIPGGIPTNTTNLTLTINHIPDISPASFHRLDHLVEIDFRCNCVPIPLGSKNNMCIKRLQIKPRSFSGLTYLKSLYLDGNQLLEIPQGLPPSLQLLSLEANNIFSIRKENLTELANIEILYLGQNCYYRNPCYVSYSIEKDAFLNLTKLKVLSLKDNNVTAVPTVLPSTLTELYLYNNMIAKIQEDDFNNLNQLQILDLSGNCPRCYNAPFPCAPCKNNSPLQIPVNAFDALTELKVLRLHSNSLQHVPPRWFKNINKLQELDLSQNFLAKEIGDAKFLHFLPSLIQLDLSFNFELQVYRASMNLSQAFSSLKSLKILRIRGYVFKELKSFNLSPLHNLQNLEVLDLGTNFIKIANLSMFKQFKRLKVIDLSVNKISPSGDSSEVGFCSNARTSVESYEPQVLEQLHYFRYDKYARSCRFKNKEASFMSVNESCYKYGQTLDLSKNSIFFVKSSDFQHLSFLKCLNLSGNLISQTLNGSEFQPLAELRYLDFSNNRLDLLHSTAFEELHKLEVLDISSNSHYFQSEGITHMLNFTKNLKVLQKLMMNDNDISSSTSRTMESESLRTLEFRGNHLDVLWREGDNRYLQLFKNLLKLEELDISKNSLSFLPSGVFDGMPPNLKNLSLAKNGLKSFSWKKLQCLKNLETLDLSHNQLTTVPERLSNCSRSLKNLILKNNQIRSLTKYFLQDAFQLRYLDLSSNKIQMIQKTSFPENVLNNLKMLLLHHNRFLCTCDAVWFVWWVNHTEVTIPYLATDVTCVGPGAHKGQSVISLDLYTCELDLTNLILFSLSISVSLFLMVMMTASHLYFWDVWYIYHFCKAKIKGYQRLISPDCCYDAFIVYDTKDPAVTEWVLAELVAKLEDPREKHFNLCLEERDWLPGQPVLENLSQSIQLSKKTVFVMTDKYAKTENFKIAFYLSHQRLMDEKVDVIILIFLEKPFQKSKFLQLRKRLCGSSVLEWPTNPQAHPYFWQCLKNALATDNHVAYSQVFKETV

PBMC [5] = assay: Induction of IL1-beta secretion in human PBMC after 24 hrs by Luminex Multiplex assay; format: functional, cell-based
Mus musculus [6] = assay: Induction of IL12 secretion in sc dosed C57BL/6 mouse serum after 2 hrs by ELISA; format: functional, organism-based
PBMC [7] = assay: Induction of IL12 secretion in human PBMC after 24 hrs by Luminex Multiplex assay; format: functional, cell-based
Mus musculus [8] = assay: Induction of chemokine secretion in C57BL/6 mouse plasma at 100 mg/kg, sc by Luminex Multiplex assay; format: functional, organism-based; set-up: dose 100 mg/kg
PBMC [9] = assay: Induction of IFN-gamma secretion in human PBMC after 24 hrs by Luminex Multiplex assay; format: functional, cell-based
Mus musculus [10] = assay: Induction of cytokine secretion in C57BL/6 mouse plasma at 100 mg/kg, sc by Luminex Multiplex assay; format: functional, organism-based; set-up: dose 100 mg/kg
[11] = target: T2, Toll-like receptor 8 (Homo sapiens) (UniProt Q9NR97); assay: Activation of human TLR8 expressed in HEK293 cells assessed as increase in NF-kappaB activation at 100 ug/ml by SEAP assay; format: cell-based
T2 sequence (whole entry): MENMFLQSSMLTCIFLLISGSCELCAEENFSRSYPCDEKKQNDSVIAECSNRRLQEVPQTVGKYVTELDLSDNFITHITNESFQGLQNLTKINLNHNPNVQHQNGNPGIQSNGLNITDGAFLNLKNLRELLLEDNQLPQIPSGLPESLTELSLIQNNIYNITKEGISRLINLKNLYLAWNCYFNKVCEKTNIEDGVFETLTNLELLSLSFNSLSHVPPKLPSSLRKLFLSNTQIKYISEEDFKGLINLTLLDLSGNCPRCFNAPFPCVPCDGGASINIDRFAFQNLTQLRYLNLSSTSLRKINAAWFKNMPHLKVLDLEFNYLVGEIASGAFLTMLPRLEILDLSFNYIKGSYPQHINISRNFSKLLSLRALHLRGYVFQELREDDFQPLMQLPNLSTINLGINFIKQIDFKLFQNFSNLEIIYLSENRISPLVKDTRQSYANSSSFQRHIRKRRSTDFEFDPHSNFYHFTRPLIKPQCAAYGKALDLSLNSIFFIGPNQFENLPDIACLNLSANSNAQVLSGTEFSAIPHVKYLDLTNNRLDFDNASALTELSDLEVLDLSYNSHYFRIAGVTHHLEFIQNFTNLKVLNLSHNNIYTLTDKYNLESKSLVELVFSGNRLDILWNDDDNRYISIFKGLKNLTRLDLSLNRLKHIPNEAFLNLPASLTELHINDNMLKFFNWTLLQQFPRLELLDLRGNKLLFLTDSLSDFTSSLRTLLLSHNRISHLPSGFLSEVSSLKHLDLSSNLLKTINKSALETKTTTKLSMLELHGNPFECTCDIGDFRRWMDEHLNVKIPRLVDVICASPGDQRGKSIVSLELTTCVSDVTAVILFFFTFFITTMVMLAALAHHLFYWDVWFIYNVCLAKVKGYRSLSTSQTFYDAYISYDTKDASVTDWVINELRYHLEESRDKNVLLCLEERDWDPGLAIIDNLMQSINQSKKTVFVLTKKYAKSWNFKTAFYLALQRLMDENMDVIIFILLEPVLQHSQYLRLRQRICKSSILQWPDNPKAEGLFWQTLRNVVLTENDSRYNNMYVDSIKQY

[12] = Stability in 1% human serum assessed as full length product after 10 mins; format: ADME, cell-free; details: read-out: Stability
Dendritic cell = assay: Induction of IFNalpha secretion in human plasmacytoid dendritic cells at 200 ug/ml after 24 hrs by Luminex Multiplex assay; format: functional
spleen [13] = assay: Induction of chemokine secretion in C57BL/6 mouse spleen cells 100 ug/ml after 24 hrs by Luminex Multiplex assay; format: functional, cell-based
spleen [14] = assay: Induction of cytokine secretion in C57BL/6 mouse spleen cells at 100 ug/ml after 24 hrs by Luminex Multiplex assay; format: functional, cell-based

Activity [4]	Activity [11]	remaining at 10 min [12] [%]	SMILES	Activity (PBMC [1])	Activity (PBMC [2])	Activity (PBMC [3])	Activity (PBMC [5])	Activity (Mus musculus [6])	Activity (PBMC [7])	Activity (Mus musculus [8])	Activity (PBMC [9])	Activity (Mus musculus [10])	Activity (Dendritic cell)	Activity (spleen [13])	Activity (spleen [14])
inactive	Active	74	Nc1ccn([C@@H]2O[C@H](COP(O)(=S)O[C@H]3[C@@H](O)[C@H](n4cnc5c(=O)[nH]c(N)nc54)O[C@@H]3COP(O)(=S)O[C@H]3[C@@H](O)[C@H](n4ccc(=O)[nH]c4=O)O[C@@H]3CO)[C@@H](OP(O)(=S)OC[C@H]3O[C@@H](n4ccc(=O)[nH]c4=O)[C@H](O)[C@@H]3OP(O)(=S)OC[C@H]3O[C@@H](n4cnc5c(=O)[nH]c(N)nc54)[C@H](O)[C@@H]3OP(O)(=S)OC[C@H]3O[C@@H](n4ccc(N)nc4=O)[C@H](O)[C@@H]3OP(O)(=S)OC[C@H]3O[C@@H](n4ccc(=O)[nH]c4=O)[C@H](O)[C@@H]3OP(O)(=S)OC[C@H]3O[C@@H](n4ccc(=O)[nH]c4=O)[C@H](O)[C@@H]3OP(O)(=S)OC[C@H]3O[C@@H](n4cnc5c(=O)[nH]c(N)nc54)[C@H](O)[C@@H]3OP(O)(=S)OC[C@H]3O[C@@H](n4ccc(=O)[nH]c4=O)[C@H](O)[C@@H]3OP(O)(=S)OC[C@H]3O[C@@H](n4cnc5c(=O)[nH]c(N)nc54)[C@H](O)[C@@H]3OP(O)(=S)OCC(O)COP(O)(=S)O[C@H]3[C@@H](O)[C@H](n4cnc5c(=O)[nH]c(N)nc54)O[C@@H]3COP(O)(=S)O[C@H]3[C@@H](O)[C@H](n4ccc(=O)[nH]c4=O)O[C@@H]3COP(O)(=S)O[C@H]3[C@@H](O)[C@H](n4cnc5c(=O)[nH]c(N)nc54)O[C@@H]3COP(O)(=S)O[C@H]3[C@@H](O)[C@H](n4ccc(=O)[nH]c4=O)O[C@@H]3COP(O)(=S)O[C@H]3[C@@H](O)[C@H](n4ccc(=O)[nH]c4=O)O[C@@H]3COP(O)(=S)O[C@H]3[C@@H](O)[C@H](n4ccc(N)nc4=O)O[C@@H]3COP(O)(=S)O[C@H]3[C@@H](O)[C@H](n4cnc5c(=O)[nH]c(N)nc54)O[C@@H]3COP(O)(=S)O[C@H]3[C@@H](O)[C@H](n4ccc(=O)[nH]c4=O)O[C@@H]3COP(O)(=S)O[C@H]3[C@@H](O)[C@H](n4ccc(N)nc4=O)O[C@@H]3COP(O)(=S)O[C@H]3[C@@H](O)[C@H](n4cnc5c(=O)[nH]c(N)nc54)O[C@@H]3COP(O)(=S)O[C@H]3[C@@H](O)[C@H](n4ccc(=O)[nH]c4=O)O[C@@H]3CO)[C@H]2O)c(=O)n1 (some centres not stated)	Dose-dependent effect	Dose-dependent effect	Dose-dependent effect	Dose-dependent effect	inactive	Dose-dependent effect	inactive	Dose-dependent effect	inactive			
Active	Active		Nc1ccn([C@@H]2O[C@H](COP(O)(=S)O[C@H]3[C@@H](O)[C@H](n4ccc(=O)[nH]c4=O)O[C@@H]3COP(O)(=S)O[C@H]3[C@@H](O)[C@H](n4ccc(=O)[nH]c4=O)O[C@@H]3COP(O)(=S)O[C@H]3[C@@H](O)[C@H](n4ccc(N)nc4=O)O[C@@H]3COP(O)(=S)O[C@H]3[C@@H](O)[C@H](n4ccc5c(=O)[nH]c(N)nc54)O[C@@H]3COP(O)(=S)O[C@H]3[C@@H](O)[C@H](n4ccc(=O)[nH]c4=O)O[C@@H]3COP(O)(=S)O[C@H]3[C@@H](O)[C@H](n4ccc(N)nc4=O)O[C@@H]3COP(O)(=S)O[C@H]3[C@@H](O)[C@H](n4ccc5c(=O)[nH]c(N)nc54)O[C@@H]3COP(O)(=S)O[C@H]3[C@@H](O)[C@H](n4ccc(=O)[nH]c4=O)O[C@@H]3CO)[C@@H](OP(O)(=S)OC[C@H]3O[C@@H](n4ccc(=O)[nH]c4=O)[C@H](O)[C@@H]3OP(O)(=S)OC[C@H]3O[C@@H](n4ccc5c(=O)[nH]c(N)nc54)[C@H](O)[C@@H]3OP(O)(=S)OCCC(O)CCOP(O)(=S)O[C@H]3[C@@H](O)[C@H](n4ccc5c(=O)[nH]c(N)nc54)O[C@@H]3COP(O)(=S)O[C@H]3[C@@H](O)[C@H](n4ccc(=O)[nH]c4=O)O[C@@H]3COP(O)(=S)O[C@H]3[C@@H](O)[C@H](n4ccc(N)nc4=O)O[C@@H]3COP(O)(=S)O[C@H]3[C@@H](O)[C@H](n4ccc(=O)[nH]c4=O)O[C@@H]3COP(O)(=S)O[C@H]3[C@@H](O)[C@H](n4ccc(=O)[nH]c4=O)O[C@@H]3COP(O)(=S)O[C@H]3[C@@H](O)[C@H](n4ccc(N)nc4=O)O[C@@H]3COP(O)(=S)O[C@H]3[C@@H](O)[C@H](n4ccc5c(=O)[nH]c(N)nc54)O[C@@H]3COP(O)(=S)O[C@H]3[C@@H](O)[C@H](n4ccc(=O)[nH]c4=O)O[C@@H]3COP(O)(=S)O[C@H]3[C@@H](O)[C@H](n4ccc(N)nc4=O)O[C@@H]3COP(O)(=S)O[C@H]3[C@@H](O)[C@H](n4ccc5c(=O)[nH]c(N)nc54)O[C@@H]3COP(O)(=S)O[C@H]3[C@@H](O)[C@H](n4ccc(=O)[nH]c4=O)O[C@@H]3CO)[C@H]2O)c(=O)n1 (some centres not stated)										Active	Dose-dependent effect	Dose-dependent effect
